Measurements taken from US20080280862A1, “Methods, compositions, and kits for the treatment of pain” (priority 2007, published 2008).

How the values were obtained:
[1] = system: carrageenan-induced pain model in rats; experiment: Carrageenan pain model, mechanical allodynia by Von Frey filaments; assay type: in vivo, Sprague-Dawley rats; settings: for Mean AUC ± SEM: AUC from 20 minutes through 120 minutes following carrageenan injection; for Mean change from baseline ± SEM: Experiment Two; for mean change from baseline: Table 4
Experimental: The carrageenan model is a fast, reliable model used to assess the ability of analgesics to block inflammatory pain. The analgesic effects of test article combinations on pain generation are assayed using the carrageenan-induced pain model in rats. Adult male Sprague-Dawley rats are administered study drugs intraperitoneally (vehicle, tricyclic compound (TCA), steroid or TCA/Steroid test article combinations) once daily for 2 days (day −2 and day −1) and 30 minutes prior to the carrageenan injection on day 0 (time=0). For the carrageenan injection, animals are lightly anesthetized and 0.1 ml of 2% carrageenan is injected into the plantar surface of the right hind paw. The positive control diclofenac at a dose of 25 mg/kg is administered intraperitoneally immediately before the carrageenan injection. Paw volumes (right and left) are measured using a plathysmometer before drug administration on day −2 and serve as a baseline measurement. The paw volumes are measured again two hours post carrageenan injection. The degree of mechanical allodynia is measured by a blinded observer using Von Frey filaments applied to the plantar surface of the hind paws in an increasing numerical order. Each filament increases the force applied on the paw. The filaments are applied until animal paw withdrawal is achieved. This procedure is carried out before drug administration (day −2), on day −1 and on day 0 at time=0, 20, 40, 60, 80 and 120 minutes post-carrageenan. The force (expressed in grams) required for paw withdrawal after carrageenan injection is subtracted from the force required for paw withdrawal before carrageenan injection. Results are expressed as mean change from baseline across five timepoints post carrageenan injection in Table 4.
For a synergy calculation, experimental data from the carrageenan study are fitted to a median-effect model and used to calculate the parameters' median-effect dose (Dm), slope (m), correlation coefficient (r), combination index (CI) and dose-reduction index (DRI). In addition, the probability of pain inhibition occurring after single-component (nortriptyline) versus the combination drug treatments are calculated from the negative change from baseline data using a Bayesian sensitivity analysis. The likelihood of pain inhibition is characterized for nortriptyline administered alone (1 mg/kg or 3 mg/kg) versus the fixed-dose combination treatments [prednisolone (0.3 mg/kg):nortriptyline (1 mg/kg) or prednisolone (1 mg/kg):nortriptyline (3 mg/kg)] each evaluated at 60 and 80 minutes for analgesic effect.
In another example, the effects of test article combinations on pain inhibition were assayed using the carrageenan model in rodents. Desipramine was tested alone and in combination at 0.3, 1, and 3 mg/kg and prednisolone was tested similarly at 0.3, 1 and 3 mg/kg IP.

[2] = system: formalin-induced pain model in rats; experiment: Formalin pain model, nociceptive behaviors; assay type: in vivo, Sprague-Dawley rats; settings: Experiment One, nortriptyline
Experimental: The formalin model is a fast, reliable model used to assess potential analgesics ability to block inflammatory pain. The analgesic effects of test article combinations on pain generation are assayed using the formalin-induced pain model in rats. Adult male Sprague-Dawley rats are administered intraperitoneally study drugs (vehicle, TCA, steroid or TCA/Steroid test article combinations) once daily for 2 days (day −2 and day −1) and 30 minutes prior to the formalin injection day on day 0 (time=0). […] To elicit a pain response, dilute formalin (2% in saline) is injected under the skin of the plantar surface of the right hindpaw. The animal is placed in an observation chamber. The pain response is a characteristic biphasic response pattern of nociceptive behaviors (lifting, licking, and biting of the injected paw). Two distinct periods of nociceptive behaviors/activity are observed and recorded: an early phase (phase I) lasting the first 5-10 min and a late phase (phase II) lasting 20-40 min after the injection of formalin. One hour of data is collected (time spent displaying pain behavior) by a blinded observer using a stopwatch. Results are expressed as the number of pain behaviors per 5 minute periods (Table 8 and Table 9).

## CNCCC=C1c2ccccc2CCc2ccccc21 [Nortriptyline]
[1]; 1 mg/Kg
  Mean AUC ± SEM: 1895 ± 547.01
[1]; 3 mg/Kg
  Mean AUC ± SEM: 3082 ± 275.81
[1]; first set of rows, 1 mg/kg, 20 minutes
  Mean change from baseline ± SEM: 16.94 ± 7.35 g
[1]; first set of rows, 1 mg/kg, 40 minutes
  Mean change from baseline ± SEM: 17.01 ± 7.37 g
[1]; first set of rows, 1 mg/kg, 60 minutes
  Mean change from baseline ± SEM: 22.36 ± 4.36 g
[1]; first set of rows, 1 mg/kg, 80 minutes
  Mean change from baseline ± SEM: 29.59 ± 4.80 g
[1]; first set of rows, 1 mg/kg, 120 minutes
  Mean change from baseline ± SEM: 37.64 ± 5.20 g
[1]; first set of rows, 3 mg/kg, 20 minutes
  Mean change from baseline ± SEM: 5.83 ± 6.21 g
[1]; first set of rows, 3 mg/kg, 40 minutes
  Mean change from baseline ± SEM: 5.83 ± 6.21 g
[1]; first set of rows, 3 mg/kg, 60 minutes
  Mean change from baseline ± SEM: 12.87 ± 5.09 g
[1]; first set of rows, 3 mg/kg, 80 minutes
  Mean change from baseline ± SEM: 15.84 ± 5.10 g
[1]; first set of rows, 3 mg/kg, 120 minutes
  Mean change from baseline ± SEM: 35.98 ± 4.09 g
[1]; second set of rows, 1 mg/kg, 20 minutes
  Mean change from baseline ± SEM: 17.00 ± 6.43 g
[1]; second set of rows, 1 mg/kg, 40 minutes
  Mean change from baseline ± SEM: -4.25 ± 4.25 g
[1]; second set of rows, 1 mg/kg, 60 minutes
  Mean change from baseline ± SEM: 32.50 ± 4.96 g
[1]; second set of rows, 1 mg/kg, 80 minutes
  Mean change from baseline ± SEM: 29.75 ± 4.25 g
[1]; second set of rows, 1 mg/kg, 120 minutes
  Mean change from baseline ± SEM: 33.88 ± 5.21 g
[1]; second set of rows, 3 mg/kg, 20 minutes
  Mean change from baseline ± SEM: 17.00 ± 6.43 g
[1]; second set of rows, 3 mg/kg, 40 minutes
  Mean change from baseline ± SEM: 0.00 ± 6.43 g
[1]; second set of rows, 3 mg/kg, 60 minutes
  Mean change from baseline ± SEM: 17.00 ± 6.43 g
[1]; second set of rows, 3 mg/kg, 80 minutes
  Mean change from baseline ± SEM: 0.00 ± 0.00 g
[1]; second set of rows, 3 mg/kg, 120 minutes
  Mean change from baseline ± SEM: 0.00 ± 0.00 g
[1]; 1 mg/kg ip, 20 minutes post carrageenan
  mean change from baseline: 25.50 ± 7.90 grams
[1]; 1 mg/kg ip, 40 minutes post carrageenan
  mean change from baseline: −4.70 ± 8.13 grams
[1]; 1 mg/kg ip, 60 minutes post carrageenan
  mean change from baseline: −59.30 ± 10.6 grams
[1]; 1 mg/kg ip, 80 minutes post carrageenan
  mean change from baseline: −99.70 ± 13.75 grams
[1]; 1 mg/kg ip, 120 minutes post carrageenan
  mean change from baseline: −146.90 ± 19.62 grams
[1]; 3 mg/kg ip, 20 minutes post carrageenan
  mean change from baseline: 7.40 ± 10.10 grams
[1]; 3 mg/kg ip, 40 minutes post carrageenan
  mean change from baseline: −49.20 ± 11.54 grams
[1]; 3 mg/kg ip, 60 minutes post carrageenan
  mean change from baseline: −109.20 ± 11.54 grams
[1]; 3 mg/kg ip, 80 minutes post carrageenan
  mean change from baseline: −169.20 ± 11.54 grams
[1]; 3 mg/kg ip, 120 minutes post carrageenan
  mean change from baseline: −205.40 ± 11.35 grams
[1]; 10 mg/kg ip, 20 minutes post carrageenan
  mean change from baseline: −4.00 ± 8.20 grams
[1]; 10 mg/kg ip, 40 minutes post carrageenan
  mean change from baseline: −68.60 ± 10.46 grams
[1]; 10 mg/kg ip, 60 minutes post carrageenan
  mean change from baseline: −112.80 ± 13.51 grams
[1]; 10 mg/kg ip, 80 minutes post carrageenan
  mean change from baseline: −157.00 ± 17.21 grams
[1]; 10 mg/kg ip, 120 minutes post carrageenan
  mean change from baseline: −185.80 ± 20.18 grams
[1]; 20 mg/kg ip, 20 minutes post carrageenan
  mean change from baseline: −17.60 ± 5.89 grams
[1]; 20 mg/kg ip, 40 minutes post carrageenan
  mean change from baseline: −74.20 ± 7.72 grams
[1]; 20 mg/kg ip, 60 minutes post carrageenan
  mean change from baseline: −130.80 ± 10.37 grams
[1]; 20 mg/kg ip, 80 minutes post carrageenan
  mean change from baseline: −190.80 ± 10.37 grams
[1]; 20 mg/kg ip, 120 minutes post carrageenan
  mean change from baseline: −255.40 ± 14.97 grams
[1]; median-effect model, prednisolone/nortriptyline 1:3 fixed ratios
  decrease of median-effect dose (Dm) after co-administration compared to the monotherapy: 4 fold
[2]; 1 mg/kg, 5 minutes
  Mean number of behaviors per 5 minute block: 185.0 ± 30.0
[2]; 1 mg/kg, 10 minutes
  Mean number of behaviors per 5 minute block: 26.0 ± 16.0
[2]; 1 mg/kg, 15 minutes
  Mean number of behaviors per 5 minute block: 16.0 ± 16.0
[2]; 1 mg/kg, 20 minutes
  Mean number of behaviors per 5 minute block: 33.0 ± 22.0
[2]; 1 mg/kg, 25 minutes
  Mean number of behaviors per 5 minute block: 124.0 ± 40.0
[2]; 1 mg/kg, 30 minutes
  Mean number of behaviors per 5 minute block: 170.0 ± 46.0
[2]; 1 mg/kg, 35 minutes
  Mean number of behaviors per 5 minute block: 181.0 ± 47.0
[2]; 1 mg/kg, 40 minutes
  Mean number of behaviors per 5 minute block: 168.0 ± 46.0
[2]; 1 mg/kg, 45 minutes
  Mean number of behaviors per 5 minute block: 176.0 ± 45.0
[2]; 1 mg/kg, 50 minutes
  Mean number of behaviors per 5 minute block: 191.0 ± 42.0
[2]; 1 mg/kg, 55 minutes
  Mean number of behaviors per 5 minute block: 165.0 ± 41.0
[2]; 1 mg/kg, 60 minutes
  Mean number of behaviors per 5 minute block: 89.0 ± 34.0
[2]; 3 mg/kg, 5 minutes
  Mean number of behaviors per 5 minute block: 248.0 ± 10.6
[2]; 3 mg/kg, 10 minutes
  Mean number of behaviors per 5 minute block: 36.0 ± 12.0
